# Legend:
# [1] = tested on: T. cruzi Tulahuen trypomastigotes; assay: T. cruzi trypomastigote assay (Cell Titer-Glo viability, ATP luminescence); type: cell-based, Trypanosoma cruzi; conditions: for Trypomastigotes pIC50 48 hours: 48 hours incubation; for Trypomastigotes pIC50 48 hours / Trypomastigotes pIC50 72 hours: pIC50 = -log10 IC50 in molar units; for Trypomastigotes pIC50 72 hours: 72 hours incubation; for 48 pIC50 / 72 pIC50: trypomastigote assay; for 48 pIC50: 48 h; for 72 pIC50: 72 h
# Outline: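 Compounds were tested in dose response or once at a final 5 μM against 5 × 10^4 trypomastigotes per well (DMEM, 2% FBS), collected on days 5–8 from LLC-MK2 infected cultures. ATP luminescence via CellTiter-Glo reports live parasites; DMSO defines 0% and cell-free wells 100% effect.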
# [2] = tested on: T. cruzi intracellular amastigotes in H9c2 cells; assay: Rate-of-Kill (RoK) high-content imaging assay, amastigotes per cell (AM/CELL) and curve descriptors; type: cell-based, Trypanosoma cruzi; conditions: maximum percentage of parasite burden reduction reached by any concentration, 24 hours
# Experimental: (§1) For this high-content intracellular imaging assay, H9c2 cells were seeded in 225 cm^2 T- FLASK in DMEM with 10% FBS for 4 h to allow attachment. T. cruzi trypomastigotes, collected at days 5 to 8 after infection from LLC-MK2 parasite infected cultures, were allowed to swim out for 4 h at 37°C from a centrifuged pellet (1,600 x g / 10 min). Trypomastigotes were then collected and counted in a CASY Cell Counter using the 60 μm capillary. Trypomastigotes, in supplemented DMEM, were added to H9c2 cultures in a multiplicity of infection (MOI) of 8 and incubated for 18 h. Cells were washed once with PBS before incubation of the infected H9c2 monolayer with trypsin (Life-Technologies) to detach cells from the flask. Cells were counted in a CASY Cell Counter, using the 150 μm capillary, and their density set at 5 x 10^4 cells/mL in supplemented DMEM. Infected H9c2 were dispensed into 384-well plates at 50 μL per well using a Multidrop Combi dispenser. Control wells used to determine a 100% parasitic growth (full 6th column of each plate) were left untreated, whereas not infected cells were added in the control wells used as 0% parasite growth (or 100% parasite growth inhibition; full 18th column of each plate). The four plates corresponding to each RoK assay were predispensed for the same mother plate. […] Cultures were then fixed and stained with 50 μL per well of a PBS solution containing 4% formaldehyde and 2 μM DRAQ5 DNA dye (BioStatus, UK). Then plates were read in a PerkinElmer Opera Phenix using a 20x objective, 3 fields per well. DRAQ5 signal was detected using 640 nm excitation laser and a 690/50 nm emission detection filter. Automated image analysis was performed with a script developed on Acapella High Content Imaging and Analysis Software (PerkinElmer). Two outputs were provided for each sample well: (1) number of host cells nuclei to determine drug-related cytotoxicity (aka H9c2) and (2) number of amastigotes per cell as infection level measurement (aka AM/CELL). Each output is plotted as a time course for each compound at every concentration. This assay was adapted from Alonso-Padilla et al. and Peña et al..
# To identify and classify the different compounds, the number of amastigotes per cell (AM/CELL) raw data obtained in rate of kill assay are normalised using the average of C1 (infected cells) at time 4 hours as 0% effect and the average of C2 (non-infected cells) for each time as 100% effect, according to the following Eq 1: %CIDALRESPONSE=100*[Avg_C14h-RawData]/[Avg_C14h-Avg_C2] (1)
# (§2) • ME (Maximum Effect) is the maximum percentage of parasite burden reduction reached by any compound concentration. Compounds that decrease the initial parasite load will show a positive value of ME, whereas compounds that allow the progression of infection will render a negative ME value. […] It is calculated for the MCC50 (t50%_MCC50) and for the maximum concentration (t50%_Cmax). […] The value of this parameter is not either interpolated or extrapolated, and it refers to the first experimental time-course point at which a 50% of effect is reached or exceeded. • tlag defines the time elapsed for one particular concentration to reduce parasite burden between two consecutive points at any moment of the time course. It is calculated for the MCC50 (tlag_MCC50) and for the maximum concentration (tlag_Cmax). The value of this parameter is not either interpolated or extrapolated, and it refers to the first experimental time-course point of a positive slope in the normalised plot (i.e. %Cidal_Response). • Cmin_Tox (Minimal CytoToxic Concentration) is the lowest compound concentration that is reducing the number of host mammalian cells below 50% of initial cell density. Cytotoxic compounds may mislead a bona fide antiparasitic action.
# TcCYP51 = conditions: formerly reported; cited from earlier work
# [3] = tested on: H9c2 (rat cardiomyocytes); assay: RoK assay, number of host cells nuclei (drug-related cytotoxicity, H9c2 output, Cmin_Tox); conditions: H9c2 host cells
# Experimental: as §1, with “Trypomastigotes, in supplemented DMEM, were added to H9c2 cultures in a multiplicity of infection (MOI) of 8 and incubated for 18 h.” left out
# as §2, with “action. Therefore, this descriptor is used to flag this kind of compounds and warn about the genuine meaning of the rest of descriptors.” for “action.”
Structure (SMILES),Trypomastigotes pIC50 48 hours [1],Trypomastigotes pIC50 72 hours [1],"72 pIC50 (trypomastigotes, raw data of Fig 1D) ([1]; 72 hours, plotted values, censored values given without sign)",48 pIC50 ([1]; figure 1A),72 pIC50 ([1]; figure 1A),72 pIC50 ([1]; figure 1B),"ME 24h (maximum effect at 24 hours, intracellular amastigotes) [2]",CYP51 pIC50 (TcCYP51),Cmin_Tox [3]
CNc1cc(Cn2c(C(=O)c3cc(C)cc(Cl)c3)c(C(C)C)c(=O)[nH]c2=O)ccn1 [TCMDC-143637],< 4.3,< 4.3,< 4.3,< 4.3,< 4.3,< 4.3,23.6593%,7.5,–
Cc1ccc(S(=O)(=O)Nc2ccc(CN3CCN(C(=O)c4cccc(C#N)c4)CC3)cc2)cc1.O=C(O)C(F)(F)F [TCMDC-143497],< 4.3,4.9,–,–,–,–,–,< 4,>50 µM
COc1ccc2ncc(F)c(NC(=O)[C@]3(O)CC[C@@H](NCc4ccc5c(c4)OCCO5)CC3)c2n1.Cl [TCMDC-143507],4.4,4.4,–,4.4,4.4,4.4,–,4.2,–
Cc1cccc(NS(=O)(=O)c2cnc3sc(C)cn3c2=O)c1 [TCMDC-143372],< 4.3,< 4.3,–,< 4.3,< 4.3,< 4.3,–,< 4,–
N#Cc1ccc(S(=O)(=O)N2CCN(Cc3cccc(-c4ccncc4)c3)CC2)cc1 [TCMDC-143620],4.4,< 4.3,–,–,–,–,–,7.1,–
Cc1c([N+](=O)[O-])c(C(=O)Nc2sc3c(c2C#N)CCC(C)C3)nn1C (stereo not drawn) [TCMDC-143155],5.3,5.3,–,5.3,5.3,5.3,–,< 4,–
O=C(NC(c1ccc(Cl)cc1)c1cnccn1)C1CCN(C(=O)Nc2cccc(C(F)(F)F)c2)CC1 (stereo not drawn) [TCMDC-143561],< 4.3,< 4.3,–,< 4.3,< 4.3,< 4.3,–,6.9,–
Nc1ncnc2c1ncn2[C@@H]1O[C@H](CO)C[C@H]1O [TCMDC-143080],< 4.3,6,–,–,–,–,–,< 4,–
O=C(Nc1ccc(Br)cn1)c1ccc(Cn2cnc([N+](=O)[O-])n2)cc1 [TCMDC-143156],6.1,6.1,–,6.1,6.1,6.1,–,< 4,–
Cc1cccc(NS(=O)(=O)c2ccc3c(c2)C(=O)c2cc(S(=O)(=O)Nc4cccc(C)c4C)ccc2-3)c1C [TCMDC-143615],5,4.8,–,–,–,–,–,< 4,–
O=S(=O)(NCC(c1cccnc1)N1CCN(c2ccc(F)cc2)CC1)c1cccs1 (stereo not drawn) [TCMDC-143542],< 4.3,< 4.3,–,< 4.3,< 4.3,< 4.3,–,7.4,–
Cc1ccc2c(c1)-c1onc(C(=O)N3CCCCC3c3cccnc3)c1CO2 (stereo not drawn) [TCMDC-143191],4.7,4.4,–,–,–,–,–,7,–
O=C(CCCn1cnc([N+](=O)[O-])n1)Nc1cccc(Cl)c1 [TCMDC-143186],6,5.9,–,–,–,–,–,4.3,–
O=C(Nc1cccc(F)c1)N1CCC(Oc2cccc(-c3cccnc3)c2)CC1 [TCMDC-143555],< 4.3,< 4.3,–,< 4.3,< 4.3,< 4.3,–,6.8,–
O=C(Cn1cnc([N+](=O)[O-])n1)Nc1ccc(Cl)cc1C(=O)c1ccccc1 [TCMDC-143616],6,6,–,6,6,6,–,5,–
Cc1ccc(CNC2CCN(C[C@@H]3Cn4c(=O)ccc5ccc(=O)n3c54)CC2)cc1F [TCMDC-143403],< 4.3,< 4.3,–,< 4.3,< 4.3,< 4.3,–,< 4,–
O=S(=O)(c1ccccc1C(F)(F)F)N1CCN(Cc2ccc(-n3ccnc3)cc2)CC1 [TCMDC-143161],< 4.3,< 4.3,–,< 4.3,< 4.3,< 4.3,–,7,–
Clc1cc(Br)ccc1OCCCCn1ccnc1.O=C(O)C(=O)O [TCMDC-143590],5.4,5.3,–,–,–,–,–,7.2,–

# From PMC8318231, “Rate-of-Kill (RoK) assays to triage large compound sets for Chagas disease drug discovery: Application to GSK Chagas Box” (PLoS Neglected Tropical Diseases, 2021)
